PMC5540273, “Progress towards a public chemogenomic set for protein kinases and a call for contributions” (PLoS ONE, 2017)

How the values were obtained:
Experiment in all cases: KINOMEscan competition binding
[1] = biological target: T1, GRK1 (Homo sapiens, UniProt Q15835); conditions: read-out: %Inh GRK1
T1 sequence (Q15835 1-563): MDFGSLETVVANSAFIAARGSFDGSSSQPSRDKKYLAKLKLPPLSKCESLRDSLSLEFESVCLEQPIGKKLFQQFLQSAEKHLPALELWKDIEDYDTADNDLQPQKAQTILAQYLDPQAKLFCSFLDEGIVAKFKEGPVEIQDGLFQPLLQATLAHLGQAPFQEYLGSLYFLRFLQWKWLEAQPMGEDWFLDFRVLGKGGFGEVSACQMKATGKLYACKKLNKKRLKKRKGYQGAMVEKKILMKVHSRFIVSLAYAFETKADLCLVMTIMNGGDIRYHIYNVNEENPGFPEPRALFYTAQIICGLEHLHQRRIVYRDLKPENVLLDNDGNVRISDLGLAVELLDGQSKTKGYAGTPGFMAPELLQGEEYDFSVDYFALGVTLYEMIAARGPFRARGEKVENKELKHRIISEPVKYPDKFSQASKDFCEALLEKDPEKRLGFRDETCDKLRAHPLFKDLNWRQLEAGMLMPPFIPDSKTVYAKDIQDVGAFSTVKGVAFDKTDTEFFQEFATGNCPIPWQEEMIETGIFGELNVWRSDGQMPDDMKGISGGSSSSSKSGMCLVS

[2] = biological target: CAMK1D (Homo sapiens, UniProt Q8IU85); conditions: read-out: %Inh CAMK1D
Sequence of CAMK1D (Q8IU85 whole entry): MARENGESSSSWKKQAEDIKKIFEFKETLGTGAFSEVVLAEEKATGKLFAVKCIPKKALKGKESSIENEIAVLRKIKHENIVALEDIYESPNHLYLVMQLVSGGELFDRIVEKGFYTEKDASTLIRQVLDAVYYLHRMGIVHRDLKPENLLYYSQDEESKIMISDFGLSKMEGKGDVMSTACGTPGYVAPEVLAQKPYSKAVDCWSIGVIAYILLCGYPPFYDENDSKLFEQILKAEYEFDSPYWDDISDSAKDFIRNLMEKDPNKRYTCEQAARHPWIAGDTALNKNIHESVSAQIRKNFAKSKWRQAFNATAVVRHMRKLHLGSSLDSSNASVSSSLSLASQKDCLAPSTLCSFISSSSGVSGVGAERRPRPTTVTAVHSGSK

[3] = biological target: T2, IKK-alpha (Homo sapiens, UniProt O15111); conditions: read-out: %Inh IKK-alpha
T2 sequence (O15111 1-745): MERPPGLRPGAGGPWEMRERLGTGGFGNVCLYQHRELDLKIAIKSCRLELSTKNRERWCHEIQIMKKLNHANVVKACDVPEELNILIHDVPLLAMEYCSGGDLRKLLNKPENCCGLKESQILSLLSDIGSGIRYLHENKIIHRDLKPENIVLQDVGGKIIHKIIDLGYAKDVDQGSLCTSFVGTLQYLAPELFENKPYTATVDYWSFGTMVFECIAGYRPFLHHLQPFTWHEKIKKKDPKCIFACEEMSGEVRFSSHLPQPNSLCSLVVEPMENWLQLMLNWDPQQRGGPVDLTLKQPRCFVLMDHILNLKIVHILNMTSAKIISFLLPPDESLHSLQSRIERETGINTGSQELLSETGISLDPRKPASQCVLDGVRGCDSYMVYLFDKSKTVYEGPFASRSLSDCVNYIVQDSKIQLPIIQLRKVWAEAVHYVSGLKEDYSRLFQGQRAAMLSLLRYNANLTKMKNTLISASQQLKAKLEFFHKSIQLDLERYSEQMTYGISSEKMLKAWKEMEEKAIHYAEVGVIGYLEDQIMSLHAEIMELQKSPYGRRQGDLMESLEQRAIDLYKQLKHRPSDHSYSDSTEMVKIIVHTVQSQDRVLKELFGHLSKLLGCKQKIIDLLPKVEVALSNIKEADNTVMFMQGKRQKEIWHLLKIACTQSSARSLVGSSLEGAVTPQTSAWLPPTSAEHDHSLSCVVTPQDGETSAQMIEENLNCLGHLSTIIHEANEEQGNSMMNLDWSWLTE

[4] = biological target: FLT4 (Homo sapiens, UniProt P35916); conditions: read-out: %Inh FLT4
Sequence of FLT4 (P35916 25-1363): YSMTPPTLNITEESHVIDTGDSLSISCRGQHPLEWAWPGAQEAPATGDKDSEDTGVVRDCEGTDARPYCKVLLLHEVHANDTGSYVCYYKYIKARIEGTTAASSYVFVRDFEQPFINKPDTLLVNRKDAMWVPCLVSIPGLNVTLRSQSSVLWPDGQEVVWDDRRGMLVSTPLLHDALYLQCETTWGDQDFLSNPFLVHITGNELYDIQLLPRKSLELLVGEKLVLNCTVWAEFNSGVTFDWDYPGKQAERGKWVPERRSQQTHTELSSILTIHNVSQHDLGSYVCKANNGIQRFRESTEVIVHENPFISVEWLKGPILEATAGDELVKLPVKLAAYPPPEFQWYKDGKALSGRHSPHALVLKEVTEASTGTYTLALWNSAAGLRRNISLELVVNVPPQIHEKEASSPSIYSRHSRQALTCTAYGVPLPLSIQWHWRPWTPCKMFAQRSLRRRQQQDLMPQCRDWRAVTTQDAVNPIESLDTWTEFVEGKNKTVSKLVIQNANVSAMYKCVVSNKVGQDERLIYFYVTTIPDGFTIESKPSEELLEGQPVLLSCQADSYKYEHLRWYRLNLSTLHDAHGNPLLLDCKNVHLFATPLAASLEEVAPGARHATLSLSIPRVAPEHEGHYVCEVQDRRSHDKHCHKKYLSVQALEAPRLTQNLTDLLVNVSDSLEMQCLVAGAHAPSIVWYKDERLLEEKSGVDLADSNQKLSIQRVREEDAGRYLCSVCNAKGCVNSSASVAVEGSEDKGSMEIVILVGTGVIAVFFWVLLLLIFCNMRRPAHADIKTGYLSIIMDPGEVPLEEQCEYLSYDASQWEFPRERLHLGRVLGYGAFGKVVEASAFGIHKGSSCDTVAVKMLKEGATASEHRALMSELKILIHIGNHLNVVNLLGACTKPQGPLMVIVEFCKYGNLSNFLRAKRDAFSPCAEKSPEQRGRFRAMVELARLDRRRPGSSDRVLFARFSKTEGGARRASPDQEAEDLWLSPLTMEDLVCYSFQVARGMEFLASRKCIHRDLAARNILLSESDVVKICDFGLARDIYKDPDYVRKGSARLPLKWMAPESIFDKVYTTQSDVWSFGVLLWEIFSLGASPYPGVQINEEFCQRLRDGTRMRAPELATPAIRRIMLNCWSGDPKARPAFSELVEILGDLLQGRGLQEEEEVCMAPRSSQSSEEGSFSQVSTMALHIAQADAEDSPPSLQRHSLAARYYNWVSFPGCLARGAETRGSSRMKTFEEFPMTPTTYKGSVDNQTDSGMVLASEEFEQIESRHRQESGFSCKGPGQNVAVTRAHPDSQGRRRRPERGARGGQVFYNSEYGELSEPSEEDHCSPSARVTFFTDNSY

[5] = biological target: CIT (Homo sapiens, UniProt O14578); conditions: read-out: %Inh CIT
Sequence of CIT (O14578 whole entry): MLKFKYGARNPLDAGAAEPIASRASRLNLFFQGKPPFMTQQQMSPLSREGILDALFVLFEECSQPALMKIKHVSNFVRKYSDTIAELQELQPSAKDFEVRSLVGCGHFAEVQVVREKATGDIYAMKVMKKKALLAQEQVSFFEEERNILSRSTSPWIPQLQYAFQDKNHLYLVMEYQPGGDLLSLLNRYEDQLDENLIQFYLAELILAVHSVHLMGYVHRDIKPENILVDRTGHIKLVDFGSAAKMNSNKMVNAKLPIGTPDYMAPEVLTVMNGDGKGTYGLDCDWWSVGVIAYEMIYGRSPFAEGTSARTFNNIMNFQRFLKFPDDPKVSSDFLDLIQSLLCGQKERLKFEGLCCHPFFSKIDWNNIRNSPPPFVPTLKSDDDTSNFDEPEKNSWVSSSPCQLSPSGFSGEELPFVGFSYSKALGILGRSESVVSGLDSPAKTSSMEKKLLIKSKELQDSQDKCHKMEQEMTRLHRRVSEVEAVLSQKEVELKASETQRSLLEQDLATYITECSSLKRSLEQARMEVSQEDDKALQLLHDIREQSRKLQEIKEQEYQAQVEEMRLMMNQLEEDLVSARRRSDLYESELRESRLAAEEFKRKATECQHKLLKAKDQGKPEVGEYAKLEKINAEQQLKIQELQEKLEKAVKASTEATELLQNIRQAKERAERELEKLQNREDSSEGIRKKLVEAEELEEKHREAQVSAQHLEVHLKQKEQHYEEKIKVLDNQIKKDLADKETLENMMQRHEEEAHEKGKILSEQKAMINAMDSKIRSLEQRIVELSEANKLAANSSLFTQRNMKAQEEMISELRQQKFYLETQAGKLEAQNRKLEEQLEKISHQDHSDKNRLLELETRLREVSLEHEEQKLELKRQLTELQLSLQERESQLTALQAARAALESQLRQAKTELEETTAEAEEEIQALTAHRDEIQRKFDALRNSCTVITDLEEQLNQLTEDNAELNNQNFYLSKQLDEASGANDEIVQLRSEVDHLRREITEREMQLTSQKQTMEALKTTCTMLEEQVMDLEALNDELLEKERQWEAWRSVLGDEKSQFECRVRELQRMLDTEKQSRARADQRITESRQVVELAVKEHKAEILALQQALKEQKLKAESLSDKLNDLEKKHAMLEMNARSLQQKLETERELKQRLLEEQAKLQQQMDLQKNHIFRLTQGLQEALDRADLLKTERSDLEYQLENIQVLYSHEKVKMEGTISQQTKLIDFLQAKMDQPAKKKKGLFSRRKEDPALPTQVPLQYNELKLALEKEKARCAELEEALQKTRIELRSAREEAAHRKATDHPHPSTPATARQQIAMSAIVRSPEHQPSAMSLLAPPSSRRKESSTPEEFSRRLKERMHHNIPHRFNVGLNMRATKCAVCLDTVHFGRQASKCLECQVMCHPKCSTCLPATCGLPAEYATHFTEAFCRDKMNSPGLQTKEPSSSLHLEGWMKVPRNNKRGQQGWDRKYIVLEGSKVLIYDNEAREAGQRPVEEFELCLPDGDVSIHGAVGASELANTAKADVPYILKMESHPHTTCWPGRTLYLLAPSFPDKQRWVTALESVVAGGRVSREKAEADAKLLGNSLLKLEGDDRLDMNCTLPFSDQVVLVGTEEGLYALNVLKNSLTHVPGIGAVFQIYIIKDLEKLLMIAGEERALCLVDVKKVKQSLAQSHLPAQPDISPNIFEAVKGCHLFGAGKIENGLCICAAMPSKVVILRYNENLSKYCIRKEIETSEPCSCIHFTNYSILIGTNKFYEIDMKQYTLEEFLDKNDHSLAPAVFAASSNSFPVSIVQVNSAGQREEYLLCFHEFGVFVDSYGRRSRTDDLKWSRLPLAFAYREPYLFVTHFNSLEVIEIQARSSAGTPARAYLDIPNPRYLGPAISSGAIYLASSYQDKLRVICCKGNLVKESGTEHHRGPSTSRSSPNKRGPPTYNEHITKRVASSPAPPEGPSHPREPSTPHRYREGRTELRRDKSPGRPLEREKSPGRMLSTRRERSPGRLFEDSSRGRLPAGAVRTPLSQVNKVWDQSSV

[6] = biological target: T3, BRSK2 (Homo sapiens, UniProt Q8IWQ3); conditions: read-out: %Inh BRSK2
T3 sequence (Q8IWQ3 1-736): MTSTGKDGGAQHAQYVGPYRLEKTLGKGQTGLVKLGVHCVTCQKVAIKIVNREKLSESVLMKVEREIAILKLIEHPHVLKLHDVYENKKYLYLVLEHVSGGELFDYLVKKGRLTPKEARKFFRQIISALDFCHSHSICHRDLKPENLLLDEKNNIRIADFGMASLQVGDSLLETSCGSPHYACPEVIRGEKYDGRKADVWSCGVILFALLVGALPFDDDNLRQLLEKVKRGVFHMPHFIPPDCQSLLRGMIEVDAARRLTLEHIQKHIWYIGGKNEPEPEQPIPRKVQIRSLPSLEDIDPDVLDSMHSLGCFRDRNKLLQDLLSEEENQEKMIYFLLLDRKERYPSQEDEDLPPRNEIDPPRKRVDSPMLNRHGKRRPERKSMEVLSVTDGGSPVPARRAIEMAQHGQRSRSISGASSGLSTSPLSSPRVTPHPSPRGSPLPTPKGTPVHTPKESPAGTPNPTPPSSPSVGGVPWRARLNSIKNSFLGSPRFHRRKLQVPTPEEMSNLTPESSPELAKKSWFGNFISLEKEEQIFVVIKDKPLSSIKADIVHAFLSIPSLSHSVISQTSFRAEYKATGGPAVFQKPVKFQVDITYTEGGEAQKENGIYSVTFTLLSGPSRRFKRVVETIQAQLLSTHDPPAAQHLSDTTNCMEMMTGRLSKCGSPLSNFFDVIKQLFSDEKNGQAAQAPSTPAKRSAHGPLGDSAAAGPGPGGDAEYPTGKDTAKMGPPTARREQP

[7] = biological target: FES (Homo sapiens, UniProt P07332); conditions: read-out: %Inh FES
Sequence of FES (P07332 whole entry): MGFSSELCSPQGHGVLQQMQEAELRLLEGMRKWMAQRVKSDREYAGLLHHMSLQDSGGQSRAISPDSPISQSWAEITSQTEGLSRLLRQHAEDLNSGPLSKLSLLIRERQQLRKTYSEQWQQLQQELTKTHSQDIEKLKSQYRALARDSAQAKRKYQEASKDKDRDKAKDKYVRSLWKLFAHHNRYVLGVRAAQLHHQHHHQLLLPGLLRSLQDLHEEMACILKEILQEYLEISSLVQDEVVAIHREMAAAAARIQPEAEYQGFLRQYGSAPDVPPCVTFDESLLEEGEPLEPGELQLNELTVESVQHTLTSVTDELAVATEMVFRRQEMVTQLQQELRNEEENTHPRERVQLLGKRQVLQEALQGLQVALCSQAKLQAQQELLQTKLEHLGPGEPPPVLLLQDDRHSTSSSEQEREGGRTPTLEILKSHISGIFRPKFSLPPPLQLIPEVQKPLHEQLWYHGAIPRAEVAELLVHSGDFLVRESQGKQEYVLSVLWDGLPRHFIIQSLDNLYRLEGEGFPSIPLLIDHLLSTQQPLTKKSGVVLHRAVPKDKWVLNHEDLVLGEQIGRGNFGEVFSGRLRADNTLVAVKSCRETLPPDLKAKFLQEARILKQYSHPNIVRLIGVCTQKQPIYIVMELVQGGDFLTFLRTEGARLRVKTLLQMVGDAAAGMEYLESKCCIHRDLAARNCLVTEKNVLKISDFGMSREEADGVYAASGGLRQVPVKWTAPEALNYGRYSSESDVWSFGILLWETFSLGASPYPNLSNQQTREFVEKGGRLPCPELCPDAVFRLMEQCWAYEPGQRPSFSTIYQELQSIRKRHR

[8] = biological target: CDC2L1 (Homo sapiens, UniProt P21127); conditions: read-out: %Inh CDC2L1

Structure (SMILES)	inhibition at 1 µM [1] [%]	inhibition at 1 µM [2] [%]	inhibition at 1 µM [3] [%]	inhibition at 1 µM [4] [%]	inhibition at 1 µM [5] [%]	inhibition at 1 µM [6] [%]	inhibition at 1 µM [7] [%]	inhibition at 1 µM [8] [%]
Cn1cc(-c2cnc(N)c3c(-c4ccc5c(c4)CCN5C(=O)Cc4ccccc4)csc23)cn1 [UNC10225012A]	0	11	0	31	0	7	14	4
CS(=O)(=O)Cc1ccc(Nc2nccc(-c3c(-c4cccc(NC(=O)C5CCCCC5)c4)nn4ncccc34)n2)cc1 [UNC10225159A]	0	0	0	52	10	0	0	0
Cc1ccc(NC(=O)Nc2cccc(C(F)(F)F)c2)cc1 [UNC10225187A]	2	25	0	12	29	0	0	3
COc1cccc(OC)c1C(=O)Nc1cccc(-c2nn3ccccc3c2-c2ccnc(Nc3cccc(F)c3)n2)c1 [UNC10225310A]	0	13	0	27	36	16	20	0
O=c1cc(N2CCOCC2)nc2n(Cc3cccc(Cl)c3Cl)c(C3CC3)nn12 [UNC10225469A]	0	0	0	10	0	0	15	0
